pKi: −log10 of the molar value.
Biological target: T1, human serotonin transporter (hSERT) (Homo sapiens, UniProt P31645)
T1 construct: expressed in transfected cells; membranes prepared
Experiment: hSERT scintillation proximity assay, competition with [3H]-Citalopram
Assay type: binding
Settings: membranes of HEK-293 cells, Cheng-Prusoff
Experimental: The screening assay of this example was used to determine the affinity of ligands at the hSERT transporter by competition with [^3H]-Citalopram.
Scintillation Proximity Assay (SPA) works by bringing radioligand within close proximity to the bead's scintillant to stimulate light emission. In this assay, the receptor-containing membranes were pre-coupled to the SPA beads and the binding of the appropriate radioligand to the transporter was measured. The light emission was proportional to the amount of bound radioligand. Unbound radioligand produced no signal as a result of distant proximity to scintillant (lack of energy transfer). […]
Cell membranes were prepared using a membrane preparation buffer of 50 mM TRIS (pH 7.4). […] After a second centrifugation, the pellet was re-homogenized and brought to a final volume determined during the assay. […]
The % inhibition was calculated for each compound tested [(Compound counts per minute (CPM) at maximum concentration-Non-Specific CPM)/Total CPM*100]. […]
[formula] where max=total binding, min=non specific binding, x=concentration (M) of the tested compound and n=Hill slope. The inhibition dissociation constant (Ki) of each compound was determined according to the method of Cheng-Prusoff and then converted into negative logarithm (pKi) of the Ki.

T1 sequence (P31645 whole entry): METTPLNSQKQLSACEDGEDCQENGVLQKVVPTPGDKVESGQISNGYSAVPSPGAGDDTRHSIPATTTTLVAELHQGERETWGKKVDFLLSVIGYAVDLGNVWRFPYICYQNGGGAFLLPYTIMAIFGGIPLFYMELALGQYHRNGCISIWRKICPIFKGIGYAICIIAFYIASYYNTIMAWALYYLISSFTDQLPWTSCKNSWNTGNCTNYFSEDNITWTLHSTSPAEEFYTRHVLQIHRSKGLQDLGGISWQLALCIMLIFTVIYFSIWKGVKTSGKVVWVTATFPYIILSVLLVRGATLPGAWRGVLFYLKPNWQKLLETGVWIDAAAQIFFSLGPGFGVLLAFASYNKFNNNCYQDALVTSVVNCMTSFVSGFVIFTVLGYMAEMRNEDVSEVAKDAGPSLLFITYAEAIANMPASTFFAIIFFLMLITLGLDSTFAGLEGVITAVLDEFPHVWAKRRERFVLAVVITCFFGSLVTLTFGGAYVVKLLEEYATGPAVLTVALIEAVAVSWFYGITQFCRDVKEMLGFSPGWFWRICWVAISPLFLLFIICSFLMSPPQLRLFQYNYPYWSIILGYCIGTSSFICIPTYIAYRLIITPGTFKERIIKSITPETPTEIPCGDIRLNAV

In the case of `c1ccc(CC2CNCCN2c2ccc3cnccc3c2)cc1` (stereo not shown) [6-(2-Benzyl-piperazin-1-yl)-isoquinoline], the pKi was ~9.87.
